Experimental data taken from patent publication US20250179088A9 (ZYMEWORKS BC INC., priority 2020, published 2025).

Assays:
PBMCs [1] = assay: PBMC assay, IL-6 release (HTRF); format: cell-based; details: PBMCs from healthy donors, overnight, IL-6 induction by HTRF, average of quadruplicate
TLR7 = target: T1, TLR7 (Homo sapiens, UniProt Q9NYK1); assay: Reporter gene assay, HEK-Blue TLR7 reporter cells (SEAP)
T1 sequence (Q9NYK1 27-1049): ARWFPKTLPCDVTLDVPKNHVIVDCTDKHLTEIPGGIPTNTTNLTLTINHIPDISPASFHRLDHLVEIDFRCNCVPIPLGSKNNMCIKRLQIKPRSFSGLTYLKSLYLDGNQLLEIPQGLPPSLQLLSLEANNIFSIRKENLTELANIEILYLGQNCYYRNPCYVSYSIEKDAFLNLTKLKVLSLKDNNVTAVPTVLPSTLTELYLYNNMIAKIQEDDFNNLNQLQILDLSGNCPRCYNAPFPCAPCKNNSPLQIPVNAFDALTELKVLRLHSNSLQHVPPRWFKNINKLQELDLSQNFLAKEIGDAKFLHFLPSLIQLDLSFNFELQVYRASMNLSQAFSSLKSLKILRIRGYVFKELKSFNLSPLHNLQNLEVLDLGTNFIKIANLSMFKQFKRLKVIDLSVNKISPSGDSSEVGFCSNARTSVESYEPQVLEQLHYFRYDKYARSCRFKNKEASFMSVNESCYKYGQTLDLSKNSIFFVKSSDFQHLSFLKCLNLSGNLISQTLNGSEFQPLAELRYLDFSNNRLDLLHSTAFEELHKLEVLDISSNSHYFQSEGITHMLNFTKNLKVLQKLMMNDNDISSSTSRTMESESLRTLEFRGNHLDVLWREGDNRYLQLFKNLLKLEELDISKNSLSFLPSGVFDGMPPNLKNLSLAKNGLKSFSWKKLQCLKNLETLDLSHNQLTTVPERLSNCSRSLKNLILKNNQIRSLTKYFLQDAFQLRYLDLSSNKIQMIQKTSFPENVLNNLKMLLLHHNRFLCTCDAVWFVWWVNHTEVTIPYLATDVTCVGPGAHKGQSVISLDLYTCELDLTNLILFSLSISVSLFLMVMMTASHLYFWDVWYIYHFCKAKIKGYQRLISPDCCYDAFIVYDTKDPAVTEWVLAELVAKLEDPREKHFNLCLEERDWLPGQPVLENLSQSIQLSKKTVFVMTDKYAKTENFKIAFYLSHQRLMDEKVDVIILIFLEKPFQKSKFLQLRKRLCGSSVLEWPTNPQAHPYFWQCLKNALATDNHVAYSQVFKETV
Procedure: (§1) 3×10^4 HEK-Blue™ TLR7 or 3×10^4 TLR8 reporter cells (InvivoGen, San Diego, CA) were treated with titrated (4-fold) amounts of test compound. […] Cells were incubated overnight at 37° C. and 5% CO2, then absorbance (620 and 655 nm) was read on a Synergy™ H1 microplate reader.

TLR8 = target: T2, TLR8 (Homo sapiens, UniProt Q9NR97); assay: Reporter gene assay, HEK-Blue TLR8 reporter cells (SEAP)
T2 sequence (Q9NR97 27-1041): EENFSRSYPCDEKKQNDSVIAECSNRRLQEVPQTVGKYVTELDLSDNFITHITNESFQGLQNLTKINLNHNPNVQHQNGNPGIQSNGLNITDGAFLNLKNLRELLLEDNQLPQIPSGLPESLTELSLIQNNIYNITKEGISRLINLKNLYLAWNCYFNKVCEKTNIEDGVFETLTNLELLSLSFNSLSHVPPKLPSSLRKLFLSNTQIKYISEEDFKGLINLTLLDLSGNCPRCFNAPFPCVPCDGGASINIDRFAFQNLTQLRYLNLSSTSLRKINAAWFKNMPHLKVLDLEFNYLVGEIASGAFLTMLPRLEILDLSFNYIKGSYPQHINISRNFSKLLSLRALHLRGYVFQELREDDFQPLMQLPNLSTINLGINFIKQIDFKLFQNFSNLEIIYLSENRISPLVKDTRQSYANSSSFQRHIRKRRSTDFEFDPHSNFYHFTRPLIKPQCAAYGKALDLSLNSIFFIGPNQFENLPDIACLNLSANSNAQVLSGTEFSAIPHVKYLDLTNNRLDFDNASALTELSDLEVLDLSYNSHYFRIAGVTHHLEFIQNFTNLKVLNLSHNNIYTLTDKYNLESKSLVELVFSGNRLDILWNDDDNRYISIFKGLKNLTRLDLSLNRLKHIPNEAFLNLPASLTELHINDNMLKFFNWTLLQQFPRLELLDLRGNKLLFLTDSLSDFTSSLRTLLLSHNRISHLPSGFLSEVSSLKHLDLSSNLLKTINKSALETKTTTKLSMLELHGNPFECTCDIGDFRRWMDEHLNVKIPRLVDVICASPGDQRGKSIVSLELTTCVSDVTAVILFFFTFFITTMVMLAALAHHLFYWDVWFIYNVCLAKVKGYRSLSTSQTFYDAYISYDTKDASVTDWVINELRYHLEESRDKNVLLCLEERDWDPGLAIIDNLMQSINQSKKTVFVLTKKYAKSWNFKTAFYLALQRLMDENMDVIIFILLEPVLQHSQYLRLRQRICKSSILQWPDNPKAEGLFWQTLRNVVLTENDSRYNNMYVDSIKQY
Procedure: as §1

PBMCs [2] = assay: PBMC assay, TNF-α release (HTRF); format: cell-based; details: PBMCs from healthy donors, overnight, TNF-α induction by HTRF
Procedure: Whole peripheral blood was obtained from healthy donors. PBMCs were isolated from peripheral blood by density gradient centrifugation. […] Technologies, Vancouver, Canada) and centrifuged at 1200×G for 10 minutes in SepMate™ tubes (#15450, […] Technologies). The plasma layer containing PBMCs was poured into a new tube and washed twice. Isolated PBMCs were either used fresh or thawed from previously frozen. 1×10^5 PBMCs were cultured with titrating concentrations of compounds of Formula I overnight followed by assaying for cytokines by homogeneous time resolved fluorescence (HTRF). Compounds were dissolved in DMSO.

Structure (SMILES)	EC50 (TLR7) [µM]	EC50 (TLR8) [µM]	EC50 (PBMCs [1]) [µM]	EC50 (PBMCs [2]) [µM]
CCCCc1nc2c(N)nc3ccsc3c2n1Cc1ccc(CNc2ccc3c(c2)CCN(C(=O)OC(C)(C)C)C3)cc1 [Compound 261, tert-butyl 6-((4-((4-amino-2-butyl-1H-imidazo[4,5-d]thieno[3,2-b]pyridin-1-yl)methyl)benzyl)amino)-3,4-dihydroisoquinoline-2(1H)-carboxylate]	0.106	> 1	0.602	
CCCCc1nc2c(N)nc3ccsc3c2n1Cc1ccc(CNC2CCCN(C(=O)OC(C)(C)C)C2)cc1 (stereo not shown) [Compound 262, tert-butyl 3-((4-((4-amino-2-butyl-1H-imidazo[4,5-d]thieno[3,2-b]pyridin-1-yl)methyl)benzyl)amino)piperidine-1-carboxylate]	0.095	> 1	> 1	
CCCCc1nc2c(N)nc3ccsc3c2n1Cc1ccc(CN2CCC(CNC(=O)OC(C)(C)C)CC2)cc1 [Compound 263, tert-butyl ((1-(4-((4-amino-2-butyl-1H-imidazo[4,5-d]thieno[3,2-b]pyridin-1-yl)methyl)benzyl)piperidin-4-yl)methyl)carbamate]	0.053	> 1	0.853	
CCCCc1nc2c(N)nc3ccsc3c2n1Cc1ccc(CNCC2CCN(C(=O)OC(C)(C)C)CC2)cc1 [Compound 264, tert-butyl 4-(((4-((4-amino-2-butyl-1H-imidazo[4,5-d]thieno[3,2-b]pyridin-1-yl)methyl)benzyl)amino)methyl)piperidine-1-carboxylate]	0.083	> 1	0.153	
CCNCc1nc2c(N)nc3ccsc3c2n1Cc1ccc(CN2CCNCC2)cc1 [Compound 268, 2-((ethylamino)methyl)-1-(4-(piperazin-1-ylmethyl)benzyl)-1H-imidazo[4,5-d]thieno [3,2-b]pyridin-4-amine]	> 1	> 1	> 1	
CCNCc1nc2c(N)nc3ccsc3c2n1Cc1ccc(CN(CC)CC)cc1 [Compound 269, 1-(4-((diethylamino)methyl)benzyl)-2-((ethylamino)methyl)-1H-imidazo[4,5-d]thieno [3,2-b]pyridin-4-amine]	0.186	> 1	0.557	

More lines, main results first:

EC50 (TLR7) [µM]	EC50 (TLR8) [µM]	Structure (SMILES)	EC50 (PBMCs [1]) [µM]	EC50 (PBMCs [2]) [µM]
0.31	0.073	CCCCc1nc2c(N)nc3ccsc3c2n1Cc1nc(CNCCCCCO)cs1 [Compound 236, 5-(((2-((4-amino-2-butyl-1H-imidazo[4,5-d]thieno[3,2-b]pyridin-1-yl)methyl)thiazol-4-yl)methyl)amino)pentan-1-ol]	0.31	> 1
> 1	> 1	CCCCc1nc2c(N)nc3ccsc3c2n1Cc1ccc(CO)o1 [Compound 253, (5-((4-amino-2-butyl-1H-imidazo[4,5-d]thieno[3,2-b]pyridin-1-yl)methyl)furan-2-yl)methanol]	> 1	
0.089	> 1	CCCCc1nc2c(N)nc3ccsc3c2n1Cc1ccc(CNCCCCNC(=O)OCc2ccccc2)cc1 [Compound 260, benzyl (4-((4-((4-amino-2-butyl-1H-imidazo[4,5-d]thieno[3,2-b]pyridin-1-yl)methyl)benzyl)amino)butyl)carbamate]	0.719	
